Literature values, collected in patent publication US7417165B2, “Crystalline forms of pregabalin” (Teva Pharmaceutical Industries Ltd., priority 2005, dated 2008).

Columns and labels:
[1] = system: GAD (L-glutamic acid decarboxylase); conditions: background statement, no data
seizure = conditions: background statement, no data

## CC(C)C[C@H](CN)CC(=O)O [(S)-Pregabalin, (S)-(+)-3-(aminomethyl)-5-methylhexanoic acid]
[1]
  activation of GAD (L-glutamic acid decarboxylase): activate
seizure
  protective effect on seizure: dose dependent protective effect
